In the SangsterLogP compilation:

Test: method code SF-AS, from DOI: 10.1002/qsar.200430865
Details: pH 3.5

Compound	logD
Oc1ccc(C(=S)Nc2cc(Cl)ccc2O)c(O)c1	3.58
CCOc1ccccc1NC(=S)c1ccc(O)cc1O	3.8
COC(=O)c1ccccc1NC(=S)c1ccc(O)cc1O	2.92
N#Cc1ccc(NC(=S)c2ccc(O)cc2O)cc1	2.41
Oc1ccc(C(=S)Nc2ccc(Cl)c(F)c2)c(O)c1	4.43
Oc1ccc(C(=S)Nc2ccccc2F)c(O)c1	3.36
Oc1ccc(C(=S)Nc2ccc(Br)cc2)c(O)c1	4.02
CCOc1ccc(NC(=S)c2ccc(O)cc2O)cc1	3.49
Oc1ccc(C(=S)Nc2cccc(Cl)c2)c(O)c1	3.9
Oc1ccc(C(=S)Nc2cccc(C(F)(F)F)c2)c(O)c1	4.26
Oc1ccc(C(=S)Nc2ccc(Cl)cc2Cl)c(O)c1	4.26
Oc1ccc(C(=S)Nc2cccc(F)c2)c(O)c1	3.41
CC(=O)c1cccc(NC(=S)c2ccc(O)cc2O)c1	2.36
Oc1ccc(C(=S)Nc2cccc(Br)c2)c(O)c1	3.46
Oc1ccc(C(=S)Nc2cccc(Cl)c2Cl)c(O)c1	4.02
Oc1ccc(C(=S)Nc2cc(Cl)c(Cl)cc2Cl)c(O)c1	4.92
Oc1ccc(C(=S)Nc2ccc(F)cc2F)c(O)c1	3.54

Test: not given
Details: pH 3.5

Compound	logD
COc1cccc(NC(=S)c2ccc(O)cc2O)c1	3.54
